Experimental data from patent US20060264447A1, “Fungicidal mixtures for controlling rice pathogens” (priority 2003, published 2006).

Tested on: Cochliobolus miyabeanus
Assay: Activity against brown spot of rice caused by Cochliobolus miyabeanus, protective application
Format: in vivo
Conditions: individual active compound, rice seedlings Tai-Nong 67, protective spray, rated after six days
Description: The active compounds, separately or jointly, were prepared as a stock solution with 0.25% by weight of active compound in acetone or DMSO. 1% by weight of the emulsifier Uniperol® EL (wetting agent having emulsifying and dispersing action based on ethoxylated alkylphenols) was added to this solution, and the solution was diluted with water to the desired concentration.
Leaves of potted rice seedlings of the cultivar “Tai-Nong 67” were sprayed to runoff point with an aqueous suspension of the concentration of active compound stated below. The next day, the plants were inoculated with an aqueous spore suspension of Cochliobolus miyabeanus. The test plants were then placed in climatized chambers at 22-24° C. and 95-99% relative atmospheric humidity for six days. The extent of the development of the infection on the leaves was then determined visually.
Evaluation is carried out by determining the percentage of infected plants. These percentages were converted into efficacies.
The efficacy (E) is calculated as follows using Abbot's formula: E=(1−α/β)·100 α corresponds to the fungicidal infection of the treated plants in % and β corresponds to the fungicidal infection of the untreated (control) plants in %
An efficacy of 0 means that the infection level of the treated plants corresponds to that of the untreated control plants; an efficacy of 100 means that the treated plants are not infected.
The expected efficacies of mixtures of active compounds are determined using Colby's formula (Colby, R. S. Weeds, 15, 20-22, 1967) and compared with the observed efficacies.
Colby's formula: E=x+y−x·y/100 • E expected efficacy, expressed in % of the untreated control, when using the mixture of the active compounds A and B at the concentrations a and b • x efficacy, expressed in % of the untreated control, when using the active compound A at the concentration a • y efficacy, expressed in % of the untreated control, when using the active compound B at the concentration b

| SMILES | Efficacy in % of the untreated control (4 ppm in the spray liquor) [%] | Efficacy in % of the untreated control (16 ppm in the spray liquor) [%] |
| --- | --- | --- |
| CC1CCN(c2c(-c3c(F)cc(F)cc3F)c(Cl)nc3ncnn23)CC1 [compound I, 5-chloro-7-(4-methylpiperidin-1-yl)-6-(2,4,6-trifluorophenyl)-[1,2,4]triazolo[1,5-a]pyrimidine] | 5 | 17 |
| C[C@H](Nc1c(-c2c(F)cc(F)cc2F)c(Cl)nc2ncnn12)C(F)(F)F [B] | 5 | 41 |
| O=[N+]([O-])c1cc(C(F)(F)F)c(Cl)c([N+](=O)[O-])c1Nc1ncc(C(F)(F)F)cc1Cl [compound II, 3-chloro-N-[3-chloro-2,6-dinitro-4-(trifluoromethyl)phenyl]-5-(trifluoromethyl)-2-pyridinamine] | 5 | 17 |
| CC1CCN(c2c(-c3c(F)cccc3Cl)c(Cl)nc3ncnn23)CC1 [A] | 29 | 53 |
